Results as given in patent US20040126343A1, “Nail drug delivery” (priority 2002, published 2004).

Columns and labels:
[1] = Penetration of radiolabeled model compounds into human nail plate, diffusion cell, twice daily topical dosing for 7 days; conditions: for Increase of radioactivity in the ventral surface of the nail plate, carrier formulation compared with saline control / Radioactive Content, Dorsal/intermediate center / Radioactive Content, Ventral/intermediate center: twice daily for 7 days; for Increase of radioactivity in the ventral surface of the nail plate, carrier formulation compared with saline control: p<0.05; for Radioactive Content, Dorsal/intermediate center / Radioactive Content, Ventral/intermediate center / Percent Applied Dose, Cotton supporting bed / Percent Applied Dose, Dorsal/intermediate center / Percent Applied Dose, Remainder of nail / Percent Applied Dose, Subtotal (nail) / Percent Applied Dose, Surface Washing / Percent Applied Dose, Total (mass balance) / Percent Applied Dose, Ventral/intermediate center: mean (SD) of five tests
Description: Nail plates were collected from adult human cadavers and stored in a closed container at 0° C. Before each experiment, nail samples were gently washed with normal saline to remove any contamination, then rehydrated by placing them for 3 h on a cloth wetted with normal saline.
The test formulation contains 45% DMSO, 11% glycerin, 11% ethanol, 11% propylene glycol and water, as discussed in Hewitt P G, et al., 1998, Pharm Res 15:988-992. Normal saline (ABBOTT Laboratories, North Chicago, Ill.) was the control. […] A 5 μL aliquot was removed from each vial and radioactivity was measured in a Packard Liquid Scintillation Counter (model 1500).
A 5 μL dosing aliquot of each of the six test solutions was applied to the surface of a nail plate with a microsyringe twice daily, approximately 8 h apart for 7 days. Starting the second day, each morning before dosing, the surface of the nail was washed with cotton tips in a cycle, as follows: a dry tip, then a tip wetted with 50% skin cleansing liquid Ivory soap, then a tip wetted with distilled water, then another tip wetted with distilled water, then a final dry tip. This simulated a daily bathing. The washing samples from each cycle from each nail were pooled and collected by breaking off the cotton tip into scintillation glass vials. An aliquot of 5.0 mL methanol was added into each vial to extract test material. The radioactivity of each sample was measured in a liquid scintillation counter.
A Teflon® one-chamber diffusion cell (AMIE Systems) was used to hold each nail. To approximate physiological conditions, a small cotton ball wetted with 0.1 mL normal saline was placed in the chamber to serve as a “nail bed” and provide moisture for the nail plate. On day 5, 0.1 mL normal saline was injected through the inlet into the chamber to keep the cotton ball wet. A 1.5×1.5 cm aluminum sheet (0.24 mm thickness) with a hole in the center (1.0 cm diameter) was centered and glued to the top (dorsal) surface of the nail as a “frame” for the seal. The aluminum sheet frame flattens the curved nail and extends the surface area of the nail plate to fit the size of the top cover, so that potential leaking is prevented. The nail plate was placed on a ledge inside the receptor (1.0 cm in diameter and 0.5 cm high), sheet side up. The ventral (inner) surface of the nail was placed face down and rested on the wet cotton ball. Hydration of the nail plate and the supporting cotton bed was measured with a relative humidity/temperature meter (Corneometer CM 820; Courage & Khazaka, Cologne, Germany). Hydration was expressed digitally in arbitrary units (AU).
The rim of the cell base was covered with silicon gel and the top cover was set into the gel to prevent leaking. The metal holder was then tightly screwed into place.
The cells were placed on a platform in a large glass holding tank filled with saturated sodium phosphate solution. A digital relative humidity/temperature meter was used for monitoring room temperature, the chamber temperature, and humidity. The holding tank was then covered, thereby maintaining the cells at a constant humidity of 40%.
The sampling instrument consisted of a drill (Dremel™ model 2850; Dremel Inc., Racine, Wis.), a drill press (Dremel™), an adjustable stage (Fisher, Pittsburgh, Pa.) with an adjustable holder, and a high-speed cutter ( 5/16 inch or 7.9 mm in diameter).
After completion of the incubation phase, the nail plate was removed from the diffusion cell. The aluminum sheet frame was peeled off and placed in a glass scintillation vial. The nail plate was transferred to a clean Teflon® diffusion cell for processing. The nail plate was inverted so that the ventral (nail bed) surface faced up and the dorsal (outer) dosed surface faced down. A top cover was tightly screwed into place. The cell was placed in the middle of the holds on the adjustable stage.

[2] = cited from earlier work
[3] = cited from earlier work; remark: listed apart in the source
[4] = Test Carrier Formulation (45% DMSO)

## CC(=O)N1CCN(c2ccc(OCC3COC(Cn4ccnc4)(c4ccc(Cl)cc4Cl)O3)cc2)CC1 (stereo not shown) [Ketoconazole, ketoconazole]
[1]
  Increase of radioactivity in the ventral surface of the nail plate, carrier formulation compared with saline control: approximately 50%

## NC(N)=O [Urea, urea]
[1]; Saline Formulation
  Radioactive Content, Dorsal/intermediate center: 0.4 (0.3) μg Eq./g Nail Sample
  Radioactive Content, Ventral/intermediate center: 0.2 (0.09) μg Eq./g Nail Sample
[1]; [4]
  Radioactive Content, Dorsal/intermediate center: 0.8 (0.5) μg Eq./g Nail Sample
  Radioactive Content, Ventral/intermediate center: 0.35 (0.15) μg Eq./g Nail Sample
[1]
  Increase of radioactivity in the ventral surface of the nail plate, carrier formulation compared with saline control: approximately 50%
[2]
  pKa: 0.1

## O=C(O)Cc1ccccc1Nc1c(Cl)cccc1Cl [diclofenac sodium]
[3]; carrier formulation
  Permeability of human skin with the percutaneous drug-enhancing formulation: enhanced the permeability

## O=C(O)Cc1ccccc1Nc1c(Cl)cccc1Cl [diclofenac]
[3]; multiple dosing, four doses/day for 2 days, in the carrier, compared with a saline control
  Human skin penetration over the 48 h of study: continually increased

## O=C(O)c1ccccc1O [salicylic acid]
[1]; Saline Formulation
  Percent Applied Dose, Cotton supporting bed: 3.66 (2.02) Percent Applied Dose
  Percent Applied Dose, Dorsal/intermediate center: 47.10 (7.76) Percent Applied Dose
  Percent Applied Dose, Remainder of nail: 14.20 (5.10) Percent Applied Dose
  Percent Applied Dose, Subtotal (nail): 63.83 (9.54) Percent Applied Dose
  Percent Applied Dose, Surface Washing: 20.69 (5.97) Percent Applied Dose
  Percent Applied Dose, Total (mass balance): 88.18 (5.52) Percent Applied Dose
  Percent Applied Dose, Ventral/intermediate center: 2.53 (0.51) Percent Applied Dose
  Radioactive Content, Dorsal/intermediate center: 71.6 (10.6) μg Eq./g Nail Sample
  Radioactive Content, Ventral/intermediate center: 7.0 (1.1) μg Eq./g Nail Sample
[1]; [4]
  Radioactive Content, Dorsal/intermediate center: 16.3 (4.2) μg Eq./g Nail Sample
  Radioactive Content, Ventral/intermediate center: 10.2 (0.6) μg Eq./g Nail Sample
[1]; Test Carrier Formulation
  Percent Applied Dose, Cotton supporting bed: 2.23 (0.75) Percent Applied Dose
  Percent Applied Dose, Dorsal/intermediate center: 4.96 (2.13) Percent Applied Dose
  Percent Applied Dose, Remainder of nail: 3.87 (1.26) Percent Applied Dose
  Percent Applied Dose, Subtotal (nail): 15.87 (3.76) Percent Applied Dose
  Percent Applied Dose, Surface Washing: 70.86 (2.62) Percent Applied Dose
  Percent Applied Dose, Total (mass balance): 88.96 (2.29) Percent Applied Dose
  Percent Applied Dose, Ventral/intermediate center: 7.04 (2.67) Percent Applied Dose
[1]
  Increase of radioactivity in the ventral surface of the nail plate, carrier formulation compared with saline control: approximately 50%
